# From PMC10175095 (Therapeutic drug monitoring, 2023)
# Tests used:
# [1] = Freeze-thaw stability of unprocessed plasma samples; format: in vitro ADME; conditions: human plasma, 3 freeze (-80°C)-thaw cycles
# [2] = major systemic metabolite; cited from earlier work
# [3] = Processed sample stability in final extract; format: physicochemical; conditions: 4°C, autosampler, 25.1 h
# [4] = tested on: CDK4/6; conditions: compared with abemaciclib; cited from earlier work
# [5] = Pre-processed stability in human plasma; format: in vitro ADME; conditions: 2.5 h
# [6] = Reinjection stability in final extract; format: physicochemical; conditions: reinjected, 4°C, autosampler, 25.95 h
# [7] = Long-term stability of unprocessed plasma samples at −80°C; format: in vitro ADME; conditions: human plasma
# [8] = RT (20–25°C), yellow light, nominal 15 ng/mL
# [9] = RT (20–25°C), yellow light, nominal 1500 ng/mL
smiles,measurement,setting,value
Cc1nc2c(F)cc(-c3nc(Nc4ccc(CN5CCNCC5)cn4)ncc3F)cc2n1C(C)C [Abemaciclib-M2],Accuracy vs fresh QCs,[1]; nominal 15 ng/mL,98.2%
same,Accuracy vs. nominal concentration,[1]; nominal 15 ng/mL,100%
same,Mean measured concentration,[1]; nominal 15 ng/mL,15.0 ng/mL
same,Accuracy vs fresh QCs,[1]; nominal 1500 ng/mL,98.2%
same,Accuracy vs. nominal concentration,[1]; nominal 1500 ng/mL,99.6%
same,Mean measured concentration,[1]; nominal 1500 ng/mL,1493 ng/mL
same,Share of the total circulating analytes in plasma,[2],25%
same,Accuracy vs fresh QCs,[3]; nominal 15 ng/mL,100%
same,Accuracy vs. nominal concentration,[3]; nominal 15 ng/mL,110%
same,Mean measured concentration,[3]; nominal 15 ng/mL,16.5 ng/mL
same,Accuracy vs fresh QCs,[3]; nominal 1500 ng/mL,102%
same,Accuracy vs. nominal concentration,[3]; nominal 1500 ng/mL,102%
same,Mean measured concentration,[3]; nominal 1500 ng/mL,1537 ng/mL
same,Pharmacological potency vs parent drug,[4],equipotent
same,Accuracy vs fresh QCs,"[5]; 37°C, dark, nominal 15 ng/mL",95.8%
same,Accuracy vs. nominal concentration,"[5]; 37°C, dark, nominal 15 ng/mL",101%
same,Mean measured concentration,"[5]; 37°C, dark, nominal 15 ng/mL",15.1 ng/mL
same,Accuracy vs fresh QCs,"[5]; 37°C, dark, nominal 1500 ng/mL",103%
same,Accuracy vs. nominal concentration,"[5]; 37°C, dark, nominal 1500 ng/mL",103%
same,Mean measured concentration,"[5]; 37°C, dark, nominal 1500 ng/mL",1540 ng/mL
same,Accuracy vs fresh QCs,[5]; [8],96.6%
same,Accuracy vs. nominal concentration,[5]; [8],102%
same,Mean measured concentration,[5]; [8],15.3 ng/mL
same,Accuracy vs fresh QCs,[5]; [9],104%
same,Accuracy vs. nominal concentration,[5]; [9],104%
same,Mean measured concentration,[5]; [9],1557 ng/mL
same,Accuracy vs fresh QCs,[6]; nominal 15 ng/mL,103%
same,Accuracy vs. nominal concentration,[6]; nominal 15 ng/mL,113%
same,Mean measured concentration,[6]; nominal 15 ng/mL,16.9 ng/mL
same,Accuracy vs fresh QCs,[6]; nominal 150 ng/mL,96.5%
same,Accuracy vs. nominal concentration,[6]; nominal 150 ng/mL,104%
same,Mean measured concentration,[6]; nominal 150 ng/mL,155 ng/mL
same,Accuracy vs fresh QCs,[6]; nominal 1500 ng/mL,103%
same,Accuracy vs. nominal concentration,[6]; nominal 1500 ng/mL,104%
same,Mean measured concentration,[6]; nominal 1500 ng/mL,1557 ng/mL
same,Accuracy vs fresh QCs,"[7]; 3 months, nominal 15 ng/mL",107%
same,Accuracy vs. nominal concentration,"[7]; 3 months, nominal 15 ng/mL",97.6%
same,Mean measured concentration,"[7]; 3 months, nominal 15 ng/mL",14.6 ng/mL
same,Accuracy vs fresh QCs,"[7]; 3 months, nominal 150 ng/mL",104%
same,Accuracy vs. nominal concentration,"[7]; 3 months, nominal 150 ng/mL",100%
same,Mean measured concentration,"[7]; 3 months, nominal 150 ng/mL",150 ng/mL
same,Accuracy vs fresh QCs,"[7]; 3 months, nominal 1500 ng/mL",98.7%
same,Accuracy vs. nominal concentration,"[7]; 3 months, nominal 1500 ng/mL",100%
same,Mean measured concentration,"[7]; 3 months, nominal 1500 ng/mL",1503 ng/mL
same,Accuracy vs fresh QCs,"[7]; 7 months, nominal 15 ng/mL",102%
same,Accuracy vs. nominal concentration,"[7]; 7 months, nominal 15 ng/mL",96.9%
same,Mean measured concentration,"[7]; 7 months, nominal 15 ng/mL",14.5 ng/mL
same,Accuracy vs fresh QCs,"[7]; 7 months, nominal 150 ng/mL",92.4%
same,Accuracy vs. nominal concentration,"[7]; 7 months, nominal 150 ng/mL",102%
same,Mean measured concentration,"[7]; 7 months, nominal 150 ng/mL",154 ng/mL
same,Accuracy vs fresh QCs,"[7]; 7 months, nominal 1500 ng/mL",93.8%
same,Accuracy vs. nominal concentration,"[7]; 7 months, nominal 1500 ng/mL",93.6%
same,Mean measured concentration,"[7]; 7 months, nominal 1500 ng/mL",1403 ng/mL
same,Accuracy vs fresh QCs,"[7]; 12 months, nominal 15 ng/mL",111%
same,Accuracy vs. nominal concentration,"[7]; 12 months, nominal 15 ng/mL",101%
same,Mean measured concentration,"[7]; 12 months, nominal 15 ng/mL",15.1 ng/mL
same,Accuracy vs fresh QCs,"[7]; 12 months, nominal 150 ng/mL",95.6%
same,Accuracy vs. nominal concentration,"[7]; 12 months, nominal 150 ng/mL",110%
same,Mean measured concentration,"[7]; 12 months, nominal 150 ng/mL",166 ng/mL
same,Accuracy vs fresh QCs,"[7]; 12 months, nominal 1500 ng/mL",96.8%
same,Accuracy vs. nominal concentration,"[7]; 12 months, nominal 1500 ng/mL",104%
same,Mean measured concentration,"[7]; 12 months, nominal 1500 ng/mL",1567 ng/mL
